Data from patent publication US20240050396A1, “COMPOSITIONS AND METHODS FOR THE TREATMENT OF SOLID TUMORS” (POLYPID LTD., priority 2020, published 2024).
Where two headings read alike, the source gives them in different places.

Legend:
[1] = iv; NDA 020449; cited from earlier work
[2] = Pharmacokinetic profile of locally administered formulations vs i.v docetaxel (Example 11); format: in vivo, Sprague-Dawley female Rats
Description: This study compared the pharmacokinetics profile of docetaxel sustained release composition according to several embodiments of the invention administered to rats. The systemic PK profile of docetaxel released from the local administered formulations was compared to the PK profile of docetaxel administered i.v.
Animals: 30 Sprague-Dawley female Rats weighing+/−200 gram
Experimental Design—three study groups (n=10) were included in this study. Animals were anesthetized and skin above the right hip was cut (1 cm long) and lifted, creating a SC pocket. By making this pocket, the underlying muscle was slightly injured, mimicking the situation of the resection of SC tumor graft in the rat model. Each animal received the treatment as detailed in Table 7. In Groups 1 and 2, Formulations VI and I respectively were administered in the SC pocket on top of the injured muscle. The skin was then sutured. In the i.v. treated group (Group 3), the administration of treatment was given once, immediately after wound closure. After administration, blood samples were collected in the designated time points. Each treatment group was divided to two subgroups (n=5/subgroup) and each subgroup was sampled at the different time points. Blood was collected at 0.5, 1, 2, 4, 8, 12, and 24 hours and at 2, 3, 4, 5, 6, 7, 14, 21, and 30 days post-administration. Clinical signs and animal weights were followed during the study. The concentration of the released docetaxel in the plasma samples was evaluated by a liquid chromatography tandem mass spectrometry (LC-MS/MS) method (lower limit of quantitation [LLOQ]=3 ng/mL). The results were used to determine the PK profile of docetaxel.

KB-D-15 Epidermoid cells = conditions: cited from earlier work
CRC: HCT-116 cells = conditions: HCT-116, non-resistant; cited from earlier work
epidermoid KB-3-1 cells = conditions: KB-3-1, non-resistant; cited from earlier work
KB-P-15 Epidermoid cells = conditions: cited from earlier work
[3] = tested on: KB-PTX/099 Epidermoid cells; conditions: cited from earlier work
KB-8-5 Epidermoid cells = conditions: cited from earlier work
[4] = tested on: HCT-15 colorectal carcinoma cells; conditions: cited from earlier work
NSCLC: A549 cells = conditions: A549, non-resistant; cited from earlier work
CT-26 cell line = conditions: CT-26, resistant cell line; cited from earlier work
[5] = tested on: A549.EpoB40 non squamous cell lung carcinoma; conditions: cited from earlier work
[6] = tested on: DLD-1 colorectal carcinoma cells; conditions: cited from earlier work
[7] = tested on: HCT-8 colorectal carcinoma cells; conditions: cited from earlier work
KB-V-1 Epidermoid cells = conditions: cited from earlier work
[8] = tested on: CT-26 subcutaneous colon carcinoma tumors; conditions: for survival rate / tumor free animals: Day 39; for average tumor volume: after 39 days; for day animals started to gain weight: mouse, in vivo
Description: In the current experiment, the efficacy of local treatment with extended-release formulations according to some embodiments of the invention was compared to systemic treatment with Docetaxel. For that, subcutaneous colon carcinoma tumors were established in female BALB/c mice (7-8 weeks old, weighing ±16-20 gram at study initiation) and after reaching a desired volume (400-600 mm^3), they were resected and ˜90% of their volume was removed followed by administration of the test items. The recurrence rate of the tumors was followed and compared to an untreated control group.
Animals were injected SC with 0.5 million CT-26 cells above the right hip. When the tumor reached the desired volume (400 mm^3) after ˜7 days, animals were divided to five groups, mice were anesthetized, and the tumors were resected. Group 1 was administered with 200 mg of formulation VI containing 1.3% docetaxel (2.6 mg/mouse) to the tumor bed and Group 2 was administered with 200 mg of formulation I containing 0.88% docetaxel ([…]) to the tumor bed. Groups 3 and 4 were treated by repeated i.v injections of docetaxel solution. Group 3 was administered with 20 mg/kg i.v followed by five i.v injections of 10 mg/kg, once every 4 days. Group 4 was administered with 30 mg/kg i.v followed by five IV injections of 15 mg/kg, once every 4 days. Group 5 served as a saline-treated control with ˜100 μL saline administered locally into the tumor bed. The skin incision was then closed using a sterile suture. Post-surgery, the animals were returned to their cages for recovery and observation. Tumor size, clinical signs, and body weights were followed for 39 days.

LLC1 cell line tumors = assay: Antitumor and anti-metastatic effect on resected LLC1 tumors (Example 13); format: in vivo; conditions: 6 mg/kg IP twice a week
Experimental: The objective of this study was to assess the efficacy of the antitumor and anti-metastatic effect of different amounts of Formulation II on mouse syngeneic louis lung carcinoma (LLC1) cell line tumors in C57BL mice. The selected cell line (LLC1) is known to spontaneously form metastases in the lungs originating from a primary tumor.
Male C57BL mice, 7-8 weeks old, weighing 18-21 grams were designated for this study. LLC1 tumor cells were injected SC to the back of the mice. When the tumors reached a volume of about 400 mm^3 they were resected (at least 90% of the tumor volume was removed; average area of 0.7 cm^2). The animals were divided into 6 groups (n=10). Groups 1-4 were administered different amounts of Formulation II directly to the tumor bed. Untreated group (Group 5) served as negative control and systemically treated group (Group 6) served as positive control. Five (5) animals served as sham group, they were not injected with tumor cells but underwent the surgical procedure (Group 7). Following treatment, the surgical site was sewed and animals were returned to their cages for recovery. Animals that had tumors larger than 1500 mm^3 were humanly terminated. At termination the number of metastases in the lungs was counted in each animal.
The number of metastases was counted post termination/death. In some cases, the lungs condition didn't allow evaluation of metastases. were too decomposed and therefore the number of metastases in these lungs were not evaluated. The counting discriminated between small metastases (0.1-0.5 mm) and big metastases (>0.5 mm). In case of large number of metastases (>100), it was defined as too numerus to count (TNTC).

[9] = tested on: 9L GBM cell line tumor in the brain; assay: Syngeneic 9L GBM intra-brain tumor survival (Example 10); format: in vivo, Fischer rats
Experimental: Seventy-five (75) animals were designated for this study. The animals were divided into nine groups as described in Table 6. Group 1 served as untreated control. Groups 2 and 3 served as positive controls and were treated with temozolomide (SOC chemotherapy treatment in GBM patients) by gavage in low (33.5 mg/kg) and high doses (50 mg/kg), respectively. Group 4 (n=10) was treated with Formulation II vehicle at the defect site in the same amount as the Formulation II high amount group. Groups 5-8 (n=10/group) were treated at the excision site Formulation II at 5, 10, 25, or 50 mg/defect site. At study initiation, an incision was made and the calvarium bone of all animals was exposed and 5 mm diameter defect was drilled in the calvarium bone. The dura was cut and the brain was exposed. Each animal was injected with 9L cells (10^5 cells/2 μL/animal) at a depth of ˜1 mm in the brain using a stereotaxic instrument. Following injection of the cells, the incision was sutured. Animals were returned to their cages to recover. Treatment (temozolomide or Formulation II) was set to start five days post cell injection. For Formulation II/Formulation II vehicle treatment, the brain defects in Groups 4-8 were reopened and test articles were administered on top of the site of injection, inside the defect at Day 5. The defects were sealed with bone wax. Animals were returned to their cages to recover. Survival, clinical signs, body weight, and evaluation of cognitive behavior were followed during the study.

[10] = tested on: U87 human GBM cell line tumor xenograft; assay: Resected U87 GBM xenograft, different amounts of Formulation II (Example 9); conditions: 300 mg/kg intraperitoneal, four times, every 7 days
Experimental: This study was performed to assess the efficacy of the anti-tumor effect of different amounts of the sustained release compositions according to some exemplary embodiments of the invention on U87 human GBM cell line tumor xenograft in nude mice.
Mice were injected subcutaneously (SC) with 3 million U87 cells above the right hip. When the tumor reached the volume of about 400 mm^3 after about 9 days, animals were divided to six groups (n=10/group), the mice were anesthetized, and the tumors were resected. The tumor bed sizes were measured and documented. Groups 1, 2 and 3 were administered 20, 50, or 100 mg of formulation II; 0.87% docetaxel locally on the tumor bed, respectively. Group 4 was administered 100 mg of formulation II vehicle (excipients only without DTX) locally on the tumor bed. Group 5 served as a saline control in which ˜100 μL saline was administered locally into the tumor bed. Group 6 served as positive control and was treated with gemcitabine (300 mg/kg administered as an intraperitoneal injection, four times, every 7 days). The skin incision was then closed using a sterile suture. Post-surgery, the animals were returned to their cages for recovery and observation. Tumor size, clinical signs, and body weights were followed for 43 days.
After tumor resection, the area of the tumor bed was measured. […] The applications of Formulation II were calculated and normalized to amount per 1 cm^2 tumor bed area. The normalized application rates and docetaxel doses are detailed in Table 5.

[11] = female, Sprague-Dawley, rat, intravenous, plasma docetaxel, single i.v 10 mg/kg
[12] = female, Sprague-Dawley, rat, iv, plasma docetaxel, single i.v 10 mg/kg

For `CC(=O)O[C@@]12CO[C@@H]1C[C@H](O)[C@@]1(C)C(=O)[C@H](O)C3=C(C)[C@@H](OC(=O)[C@H](O)[C@@H](NC(=O)OC(C)(C)C)c4ccccc4)C[C@@](O)([C@@H](OC(=O)c4ccccc4)[C@H]21)C3(C)C` [Taxotere], the “maximal tolerated dose (MTD) and non-lethal dose (NLD) reported” value [1] is given as 10 mg/kg.

For `CC(=O)O[C@@]12CO[C@@H]1C[C@H](O)[C@@]1(C)C(=O)[C@H](O)C3=C(C)[C@@H](OC(=O)[C@H](O)[C@@H](NC(=O)OC(C)(C)C)c4ccccc4)C[C@@](O)([C@@H](OC(=O)c4ccccc4)[C@H]21)C3(C)C` [docetaxel], the “Cmax of i.v relative to max exposure of Formulation VI” value ([2]; 881 vs. 80.4 ng/ml) was “more than 10 fold”, the AUC(0-t) [2, 11] was 2.28 µg·h/mL and the Cmax [2, 11] was 0.881 µg/mL. For the same compound, the C0 [2, 12] was 0.881 µg/mL, the Tmax [2, 12] was 0 h and the half-life [2, 12] was 23.1 h. The Tlast ([2]; plasma docetaxel, single i.v 10 mg/kg) was 72 h, the IC50 (KB-D-15 Epidermoid cells) was 0.0682 µM and the IC50 (CRC: HCT-116 cells) was 0.0054 µM. The IC50 (epidermoid KB-3-1 cells) was 0.0011 µM, the IC50 (KB-P-15 Epidermoid cells) was 0.0176 µM and the IC50 [3] was 0.0088 µM. For the same compound, the IC50 (KB-8-5 Epidermoid cells) was 0.0088 µM, the IC50 [4] was 0.0541 µM and the IC50 (NSCLC: A549 cells) was 0.0019 µM. For the same compound, the IC50 (CT-26 cell line) was 0.26 µM, the IC50 [5] was 0.0285 µM and the IC50 [6] was 0.0162 µM. The IC50 [7] was 3.07 µM, the IC50 (KB-V-1 Epidermoid cells) was 0.468 µM and the survival rate ([8]; i.v 10 mg/kg every 4 days) was 50%. For the same compound, the survival rate ([8]; i.v 15 mg/kg every 4 days) was 63%, the tumor free animals ([8]; i.v 20 mg/kg then five injections of 10 mg/kg every 4 days) was 2/8 and the tumor free animals ([8]; i.v 30 mg/kg then five injections of 15 mg/kg every 4 days) was 3/8. For the same compound, the average tumor volume ([8]; i.v 10 mg/kg every 4 days) was 955 mm^3, the average tumor volume ([8]; i.v 15 mg/kg every 4 days) was 485 mm^3 and the “overall tumor free survival” value ([8]; day 39 post surgery, five cycles of systemic treatment) was 25%. The overall tumor recurrence ([8]; end of study, extensive systemic treatment) was 75%, the “animals terminated early due to tumor volume that exceeded 1500 mm^3” value ([8]; i.v 10 mg/kg every 4 days) was 4 and the “animals terminated early due to tumor volume that exceeded 1500 mm^3” value ([8]; i.v 15 mg/kg every 4 days) was 2. For the same compound, the “day animals started to gain weight” value ([8]; 10 mg/kg) was 20 days, the “day animals started to gain weight” value ([8]; 15 mg/kg) was 23 days and the “delayed tumor recurrence after tumor resection (first tumor related mortality)” value ([8]; systemic treatment arm) was 9 days.

For `CC(=O)O[C@H]1C(=O)[C@@]2(C)[C@H]([C@H](OC(=O)c3ccccc3)[C@]3(O)C[C@H](OC(=O)[C@H](O)[C@@H](NC(=O)c4ccccc4)c4ccccc4)C(C)=C1C3(C)C)[C@]1(OC(C)=O)CO[C@@H]1C[C@@H]2O` [paclitaxel], the IC50 (KB-D-15 Epidermoid cells) is given as 0.566 µM, the IC50 (KB-P-15 Epidermoid cells) is given as 0.117 µM and the IC50 [3] is given as 0.0741 µM. For the same compound, the IC50 (KB-8-5 Epidermoid cells) was 0.0702 µM, the IC50 [4] was 0.435 µM and the IC50 [5] was 0.128 µM. The IC50 [6] was 0.0328 µM, the IC50 [7] was 3.29 µM and the IC50 (KB-V-1 Epidermoid cells) was 3.2 µM.

For `CC(=O)O[C@H]1C(=O)[C@@]2(C)[C@H]([C@H](OC(=O)c3ccccc3)[C@]3(O)C[C@H](OC(=O)[C@H](O)[C@@H](NC(=O)c4ccccc4)c4ccccc4)C(C)=C1C3(C)C)[C@]1(OC(C)=O)CO[C@@H]1C[C@@H]2O` [taxel], the “animals that had tumor” value (LLC1 cell line tumors) was 4/10, the average lung weight (LLC1 cell line tumors) was 226 ± 114 mg and the average tumor volume (LLC1 cell line tumors) was 490 mm^3. For the same compound, the “average weight at termination lower than weight at t=0” value (LLC1 cell line tumors) was 4%, the “metastases free animals (lungs)” value (LLC1 cell line tumors) was 5/10 and the “animals early terminated due to tumor volume” value (LLC1 cell line tumors; day 23) was “One”. For the same compound, the animals found dead (LLC1 cell line tumors; day 25) was “one”.

With `Cn1nnc2c(C(N)=O)ncn2c1=O` [Temozolomide] the mean survival ([9]; 33.5 mg/kg PO daily for 5 days) was 18.8 ± 2.7 days, the mean survival ([9]; 50 mg/kg PO daily for 5 days) was 21.8 ± 3.3 days and the survival rate ([9]; day 23, 33.5 mg/kg, 5 treatment days) was 0%.

For `Nc1ccn([C@@H]2O[C@H](CO)[C@@H](O)C2(F)F)c(=O)n1` [gemcitabine], the animals found dead [10] was 4, the “animals terminated due to tumor volume that exceeded 1500 mm^3” value [10] was 4 and the survival rate ([10]; Day 43) was 20%. For the same compound, the tumor free animals ([10]; Day 43) was 2/10 and the average tumor volume ([10]; after 43 days) was 780 mm^3.
